Tests used:
RXRβ [1] = molecular target: T1, RXRβ (UniProt P28704); test: ligand binding assay, RXRβ; details: read-out: RXR Bind Ki β
T1 sequence (P28704 1-520): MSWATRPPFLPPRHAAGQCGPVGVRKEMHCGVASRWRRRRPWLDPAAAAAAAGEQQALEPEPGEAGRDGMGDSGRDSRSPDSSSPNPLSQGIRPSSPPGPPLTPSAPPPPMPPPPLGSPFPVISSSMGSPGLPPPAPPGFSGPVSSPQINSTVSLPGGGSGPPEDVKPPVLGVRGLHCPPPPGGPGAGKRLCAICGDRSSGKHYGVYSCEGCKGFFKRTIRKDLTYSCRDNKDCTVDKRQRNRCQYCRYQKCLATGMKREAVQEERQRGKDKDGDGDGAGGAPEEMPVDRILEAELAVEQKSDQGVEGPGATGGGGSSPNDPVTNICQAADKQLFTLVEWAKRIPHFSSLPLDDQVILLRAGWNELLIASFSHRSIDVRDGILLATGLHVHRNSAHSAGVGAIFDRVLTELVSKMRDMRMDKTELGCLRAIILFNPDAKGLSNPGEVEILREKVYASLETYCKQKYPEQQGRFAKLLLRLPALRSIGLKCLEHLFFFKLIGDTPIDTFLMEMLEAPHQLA
Source text: (§1) Specifically, one such assay is a chimeric receptor transactivation assay which tests for agonist-like activity in the R RAPE and RAR7 receptor subtypes, and which is based on work published by Feigner, P. L. and Holm, M (1989) Focus, 112 is described in detail in U.S. Pat. No. 5,455,265. The specification of U.S. Pat. No. 5,455,265 is hereby expressly incorporated by reference. A holoreceptor transactivation assay and a ligand binding assay which measure the antagonist/agonist like activity of the compounds of the invention, or their ability to bind to the several retinoid receptor subtypes, respectively, are described in published PCT Application No. WO WO93/11755 (particularly on pages 30-33 and 37-41) published on Jun. 24, 1993, the specification of which is also incorporated herein by reference. A detailed experimental procedure for holoreceptor transactivations has been described by Heyman et al. Cell 68, 397-406, (1992); Allegretto et al. J. Biol. Chem. 268, 26625-26633, and Mangelsdorf et al. The Retinoids: Biology, Chemistry and Medicine, pp 319-349, Raven Press Ltd., New York, which are expressly incorporated herein by reference. The results obtained in this assay are expressed in EC50 numbers, as they are also in the chimeric receptor transactivation assay. The results of the ligand binding assay are expressed in Ki numbers. (See Cheng et al. Biochemical Pharmacology Vol. 22 pp 3099-3108, expressly incorporated herein by reference.)
(§2) Generally speaking, in the tables disclosing the results of transactivation and binding assays the numbers in parentheses indicate efficacy as a percentage compared to the standard compound, (2E,4E,1′S,2′S)-3-methyl-5-[2′-methyl-2′-(5,5,8,8-tetramethyl-5,6,7,8-tetrahydro-naphthalen-2-yl)cyclopropyl]-penta-2,4-dienoic acid and the other numbers indicate the measured EC50 and K; in nanomolar concentration.

RXRα = molecular target: T2, RXRα (Homo sapiens, UniProt P19793); test: ligand binding assay, RXRα; details: read-out: RXR Bind Ki α
T2 construct: expressed in transfected cells
T2 sequence (P19793 1-462): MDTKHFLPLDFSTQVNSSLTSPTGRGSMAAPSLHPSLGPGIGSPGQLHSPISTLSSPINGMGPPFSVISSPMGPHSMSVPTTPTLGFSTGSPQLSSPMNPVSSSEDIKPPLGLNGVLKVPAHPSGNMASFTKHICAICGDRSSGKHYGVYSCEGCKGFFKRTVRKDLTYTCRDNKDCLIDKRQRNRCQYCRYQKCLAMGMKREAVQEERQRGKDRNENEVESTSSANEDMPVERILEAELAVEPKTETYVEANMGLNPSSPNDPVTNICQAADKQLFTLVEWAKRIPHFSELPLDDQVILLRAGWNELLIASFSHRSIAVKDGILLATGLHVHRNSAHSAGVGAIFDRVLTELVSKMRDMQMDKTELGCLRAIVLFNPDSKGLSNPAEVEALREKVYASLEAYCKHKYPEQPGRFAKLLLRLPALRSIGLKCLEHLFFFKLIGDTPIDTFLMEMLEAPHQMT
Source text: as §1, §2

RARβ = molecular target: T3, RARβ (Homo sapiens, UniProt P10826); test: ligand binding assay, RARβ; details: read-out: RAR Bind. Ki β
T3 sequence (P10826 1-455): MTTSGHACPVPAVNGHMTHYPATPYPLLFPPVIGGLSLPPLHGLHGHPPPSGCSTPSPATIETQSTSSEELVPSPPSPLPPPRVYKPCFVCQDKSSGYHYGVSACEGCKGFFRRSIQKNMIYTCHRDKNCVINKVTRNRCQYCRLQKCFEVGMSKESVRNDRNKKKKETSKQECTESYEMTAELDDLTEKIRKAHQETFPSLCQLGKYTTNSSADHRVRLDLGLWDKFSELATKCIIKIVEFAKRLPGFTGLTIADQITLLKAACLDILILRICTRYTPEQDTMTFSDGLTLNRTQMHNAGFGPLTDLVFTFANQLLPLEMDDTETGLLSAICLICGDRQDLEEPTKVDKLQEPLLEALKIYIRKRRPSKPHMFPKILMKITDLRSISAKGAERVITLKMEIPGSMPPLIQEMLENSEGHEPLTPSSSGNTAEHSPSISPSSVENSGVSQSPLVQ
Source text: as §1, §2

RXRβ [2] = molecular target: T1, RXRβ; test: holoreceptor transactivation assay, RXRβ; type: cell-based; details: for EC50: holoreceptor transactivation, read-out: RXR Trans. EC50 β; for RXR Trans. efficacy (number in parentheses) β: percentage compared to the standard compound
Source text: as §1
Efficacy in a transactivation assay is expressed as a percentage of the maximum potency attained by the compound compared to a standard which, in this case, is the compound named (2E,4E,1′S,2′S)-3-methyl-5-[2′-methyl-2′-(5,5,8,8-tetramethyl-5,6,7,8-tetrahydro-naphthalen-2-yl)-cyclopropyl]-penta-2,4-dienoic acid. This standard compound is described in U.S. Pat. No. 6,114,533.
The specification of this application for patent is organized in several sections in accordance with structural Formulas A through F each of which discloses a group of preferred compounds within the scope of the invention. Tables that disclose the activity of certain exemplary compounds of the invention in the above-described RXR receptor transactivation and binding assays are found in the corresponding sections. […] The transactivation data pertaining to the activation of RXR receptors were obtained in the holoreceptor assay.
as §2

Row | SMILES | Ki (RXRβ [1]) [µM] | Ki (RXRα) [µM] | Ki (RARβ) [µM] | EC50 (RXRβ [2]) [µM] | RXR Trans. efficacy (number in parentheses) β (RXRβ [2]) [%]
1 | CC/C(=C/C=C/C(C)=C/C(=O)O)c1cc2c(cc1OC)OC(C)(C)C=C2C(C)C [Compound 44, 7-(4-Isopropyl-7-methoxy-22-dimethyl-2H-chromen-6-yl)-3-methyl-nona-2E,4E,6Z-trienoic acid] | 0.038 | 0.004 | 0.617 | 0.0044 | 94
2 | CCOc1cc2c(cc1\C(C)=C/C=C/C(C)=C/C(=O)O)C(CC)=CC(C)(C)O2 [Compound 45, 7-(7-Ethoxy-4-ethyl-2,2-dimethyl-2H-chromen-6-yl)-3-methyl-octa-2E,4E,6Z-trienoic acid] | 0.343 | 0.052 | 0.196 | > 1 | 
3 | CCOc1cc2c(cc1\C(=C/C=C/C(C)=C/C(=O)O)CC)C(C)=CC(C)(C)O2 [Compound 46, 7-(7-Ethoxy-2,2,4-trimethyl-2H-chromen-6-yl)-3-methyl-nona-2E,4E,6Z-trienoic acid] | 1.7 | 0.199 | 0.614 | > 1 | 
4 | COc1c(\C(C)=C/C=C/C(C)=C/C(=O)O)cc2c(c1Cl)OC(C)(C)C=C2C(C)C [Compound 49, 7-(8-Chloro-4-isopropyl-7-methoxy-2,2-dimethyl-2H-chromen-6-y)-3-methyl-octa-2E,4E,6Z-trienoic acid] | 0.02 | 0.002 | 4.1 | 0.0009 | 98
5 | CCOc1c(\C(C)=C/C=C/C(C)=C/C(=O)O)cc2c(c1Cl)OC(C)(C)C=C2C(C)C [Compound 50, 7-(8-Chloro-4-isopropyl-7-ethoxy-2,2-dimethyl-2H-chromen-6-yl)-3-methyl-octa-2E,4E,6Z-trienoic acid] | 0.076 | 0.004 | 1.3 | 0.019 | 57
6 | CCOc1c(\C(=C/C=C/C(C)=C/C(=O)O)CC)cc2c(c1Cl)OC(C)(C)C=C2C(C)C [Compound 51] | 0.112 | 0.013 | 1.4 | 0.088 | 26
7 | CCC1=CC(C)(C)Oc2cc(OC)c(\C(C)=C(F)/C=C/C(C)=C/C(=O)O)cc21 [Compound 120, 7-(4Ethyl-7-methoxy-2,2-dimethyl-2H-chromen-6-yl)-6-fluoro-3-methyl-octa-2E,4E,6E-trienoic acid] | 2.6 | 0.277 | 8.1 | > 10 | 
8 | COc1cc2c(cc1\C(C)=C(F)/C=C/C(C)=C/C(=O)O)C(C(C)C)=CC(C)(C)O2 [Compound 121, (2E,4E,6E)-6-Fluoro-7-(4-isopropyl-7-methoxy-2,2-dimethyl-2H-chromen-6-yl)-3-methyl-octa-2,4,6-trienoic acid] | 0.033 | 0.007 | 2.1 | 0.051 | 72
9 | COc1cc2c(cc1\C(C)=C(F)/C=C/C(C)=C/C(=O)O)C(C(C)(C)C)=CC(C)(C)O2 [Compound 122, 7-(4-tert-Butyl-7-methoxy-2,2-dimethyl-2H-chromen-6-yl)-6-fluoro-3-methyl-octa-2E,4E,6E-trienoic acid] | 0.11 | 0.011 | 1.4 | 0.035 | 61
10 | CC/C(=C(F)/C=C/C(C)=C/C(=O)O)c1cc2c(cc1OC)OC(C)(C)C=C2C [Compound 129, 6-Fluoro-7-(7-methoxy-2,2,4-trimethyl-2H-chromen-6-yl)-3-methyl-nona-2E,4E,6E-trienoic acid] | 0.625 | 0.069 | 0.49 | 0.843 | 151

Other lines, results leading:

Row | Ki (RXRβ [1]) [µM] | Ki (RXRα) [µM] | Ki (RARβ) [µM] | EC50 (RXRβ [2]) [µM] | RXR Trans. efficacy (number in parentheses) β (RXRβ [2]) [%] | SMILES
11 | 0.024 | 0.003 | 0.547 | 0.0031 | 73 | CC/C(=C(F)/C=C/C(C)=C/C(=O)O)c1cc2c(cc1OC)OC(C)(C)C=C2C(C)C [Compound 130, 6-Fluoro-7-(4-isopropyl-7-methoxy-2,2-dimethyl-2H-chromen-6-yl)-3-methyl-nona-2E,4E,6E-trienoic acid]
12 | 0.094 | 0.01 | 0.843 | 0.064 | 47 | CC/C(=C(F)/C=C/C(C)=C/C(=O)O)c1cc2c(cc1OC)OC(C)(C)C=C2C(C)(C)C [Compound 131, 7-(4-tert-Butyl-7-methoxy-2,2-dimethyl-2H-chromen-6-yl)-6-fluoro-3-methyl-nona-2E,4E,6E-trienoic acid]
13 | 1.1 | 0.124 | 0.548 | > 10 |  | CCOc1cc2c(cc1\C(CC)=C(F)/C=C/C(C)=C/C(=O)O)C(C)=CC(C)(C)O2 [Compound 132, 7-(7-Ethoxy-2,2,4-trimethyl-2H-chromen-6-yl)-6-fluoro-3-methyl-nona-2E,4E,6E-trienoic acid]
14 | 0.007 | 0.002 | 2.3 | 0.0008 | 88 | COc1c(\C(C)=C(F)/C=C/C(C)=C/C(=O)O)cc2c(c1Cl)OC(C)(C)C=C2C(C)C [Compound 170, 7-(8-Chloro-4-isopropyl-7-methoxy-2,2-dimethyl-2H-chromen-6-yl)-6-fluoro-3-methyl-octa-2E,4E,6E-trienoic acid]
15 | 0.012 | 0.0013 | 0.381 | 0.0002 | 85 | CC/C(=C(F)/C=C/C(C)=C/C(=O)O)c1cc2c(c(Cl)c1OC)OC(C)(C)C=C2C(C)C [Compound 171, 7-(8-Chloro-4-isopropyl-7-methoxy-2,2-dimethyl-2H-chromen-6-yl)-6-fluoro-3-methyl-nona-2E,4E,6E-trienoic acid]

Reference: patent US6887896B1, “7-[(7-Alkoxy)-chrom-3-en-6-yl]-heptatrienoic acid and 7-[(3-alkoxy)-5,6-dihydronaphthalen-2-yl]-heptatrienoic acid derivatives having serum glucose reducing activity” (Allergan, Inc., priority 2003, dated 2005)
